Experiment [1] deals with WNK3 (Homo sapiens, UniProt Q9BYP7). The note with it: 1 μM; Run 1, Run 2.
Experiment [2] concerns the target PAK3 (Homo sapiens, UniProt O75914). Conditions: 1 μM; Run 1, Run 2.
The target in experiment [3] is PYK2 (Homo sapiens, UniProt Q14289). The note with it: 1 μM; Run 1, Run 2.
Experiment [4] addresses TLK2 (Homo sapiens, UniProt Q86UE8). The note with it: 1 μM; Run 1, Run 2.
In experiment [5] the target is T1, MEKK6 (Homo sapiens, UniProt O95382).
T1 sequence (O95382 1-1288): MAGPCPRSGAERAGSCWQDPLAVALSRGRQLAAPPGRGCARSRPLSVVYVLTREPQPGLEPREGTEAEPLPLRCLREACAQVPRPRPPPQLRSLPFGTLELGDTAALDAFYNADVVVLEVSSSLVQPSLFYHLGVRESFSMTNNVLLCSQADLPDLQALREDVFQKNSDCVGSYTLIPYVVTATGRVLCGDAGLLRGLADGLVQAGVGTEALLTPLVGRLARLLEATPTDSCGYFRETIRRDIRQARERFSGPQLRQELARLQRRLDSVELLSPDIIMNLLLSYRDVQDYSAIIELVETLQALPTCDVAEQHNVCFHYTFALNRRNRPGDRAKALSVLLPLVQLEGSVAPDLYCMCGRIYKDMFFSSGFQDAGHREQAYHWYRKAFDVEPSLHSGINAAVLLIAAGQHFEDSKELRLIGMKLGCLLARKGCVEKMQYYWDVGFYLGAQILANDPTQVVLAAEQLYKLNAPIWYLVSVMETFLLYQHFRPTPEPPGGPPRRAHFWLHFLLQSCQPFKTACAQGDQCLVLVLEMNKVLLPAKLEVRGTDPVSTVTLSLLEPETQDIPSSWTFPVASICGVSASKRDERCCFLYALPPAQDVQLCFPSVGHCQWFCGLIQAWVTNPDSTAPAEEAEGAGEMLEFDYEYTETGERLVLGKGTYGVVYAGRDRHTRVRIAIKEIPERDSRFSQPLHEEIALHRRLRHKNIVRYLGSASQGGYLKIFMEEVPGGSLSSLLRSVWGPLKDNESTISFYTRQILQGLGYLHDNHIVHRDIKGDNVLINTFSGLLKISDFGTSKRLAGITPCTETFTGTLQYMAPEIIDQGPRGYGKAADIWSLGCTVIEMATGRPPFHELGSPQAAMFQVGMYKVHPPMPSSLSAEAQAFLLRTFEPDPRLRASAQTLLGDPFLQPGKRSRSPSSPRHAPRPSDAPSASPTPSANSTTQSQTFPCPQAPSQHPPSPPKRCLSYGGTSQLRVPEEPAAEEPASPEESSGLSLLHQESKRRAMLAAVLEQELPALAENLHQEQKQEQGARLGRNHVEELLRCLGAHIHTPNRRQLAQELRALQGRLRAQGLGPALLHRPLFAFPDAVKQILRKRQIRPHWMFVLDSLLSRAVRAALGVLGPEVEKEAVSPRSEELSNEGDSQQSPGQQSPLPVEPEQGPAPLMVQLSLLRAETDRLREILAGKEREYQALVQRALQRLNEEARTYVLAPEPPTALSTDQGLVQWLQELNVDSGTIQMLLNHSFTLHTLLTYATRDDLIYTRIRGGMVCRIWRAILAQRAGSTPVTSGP
As to the kind of experiment: biochemical. The note with it: read-out: % enzyme activity, 1 μM; Run 1, Run 2.

The target of experiment [6] is AURORA B (Homo sapiens, UniProt Q96GD4). Conditions: 1 μM; Run 1, Run 2.
The target of experiment [7] is CDK18/cyclin Y (PCTK3) (Homo sapiens, UniProt Q07002). As to the kind of experiment: biochemical. Conditions: read-out: % enzyme activity, 1 μM; Run 1, Run 2.
Experiment [8] concerns the target T2, SGK1 (Homo sapiens, UniProt O00141).
T2 sequence (O00141 1-431): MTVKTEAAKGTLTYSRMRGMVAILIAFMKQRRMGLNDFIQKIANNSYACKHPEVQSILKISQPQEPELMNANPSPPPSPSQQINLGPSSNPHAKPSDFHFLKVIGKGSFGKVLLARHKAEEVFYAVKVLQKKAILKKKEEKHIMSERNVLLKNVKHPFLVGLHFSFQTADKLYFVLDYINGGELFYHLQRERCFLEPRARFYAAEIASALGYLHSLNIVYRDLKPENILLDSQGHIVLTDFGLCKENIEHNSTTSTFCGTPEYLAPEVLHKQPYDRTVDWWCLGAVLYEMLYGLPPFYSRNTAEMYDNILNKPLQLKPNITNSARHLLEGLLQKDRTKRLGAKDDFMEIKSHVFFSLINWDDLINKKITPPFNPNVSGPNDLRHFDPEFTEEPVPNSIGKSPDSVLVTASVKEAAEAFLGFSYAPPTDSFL
Conditions: 1 μM; Run 1, Run 2.

The target of experiment [9] is T3, STK22D/TSSK1 (Homo sapiens, UniProt Q9BXA7).
T3 sequence (Q9BXA7 1-367): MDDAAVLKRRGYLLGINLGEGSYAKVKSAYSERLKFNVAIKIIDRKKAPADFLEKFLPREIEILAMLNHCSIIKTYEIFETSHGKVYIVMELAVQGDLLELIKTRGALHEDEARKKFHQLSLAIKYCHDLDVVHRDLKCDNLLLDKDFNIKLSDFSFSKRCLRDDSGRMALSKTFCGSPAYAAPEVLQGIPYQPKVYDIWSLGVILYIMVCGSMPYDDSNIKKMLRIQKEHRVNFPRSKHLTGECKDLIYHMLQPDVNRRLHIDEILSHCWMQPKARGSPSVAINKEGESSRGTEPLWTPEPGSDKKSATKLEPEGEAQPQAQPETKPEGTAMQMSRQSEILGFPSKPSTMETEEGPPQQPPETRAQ
In words: biochemical. The note with it: read-out: % enzyme activity, 1 μM; Run 1, Run 2.

The target in experiment [10] is STK38/NDR1 (Homo sapiens, UniProt Q15208). The note with it: 1 μM; Run 1, Run 2.

The source of these data is publication PMC8213057, “Targeting ALK2: An Open Science Approach to Developing Therapeutics for the Treatment of Diffuse Intrinsic Pontine Glioma” (Journal of Medicinal Chemistry, 2020).

Chain of CDK18/cyclin Y (PCTK3) (Q07002 whole entry): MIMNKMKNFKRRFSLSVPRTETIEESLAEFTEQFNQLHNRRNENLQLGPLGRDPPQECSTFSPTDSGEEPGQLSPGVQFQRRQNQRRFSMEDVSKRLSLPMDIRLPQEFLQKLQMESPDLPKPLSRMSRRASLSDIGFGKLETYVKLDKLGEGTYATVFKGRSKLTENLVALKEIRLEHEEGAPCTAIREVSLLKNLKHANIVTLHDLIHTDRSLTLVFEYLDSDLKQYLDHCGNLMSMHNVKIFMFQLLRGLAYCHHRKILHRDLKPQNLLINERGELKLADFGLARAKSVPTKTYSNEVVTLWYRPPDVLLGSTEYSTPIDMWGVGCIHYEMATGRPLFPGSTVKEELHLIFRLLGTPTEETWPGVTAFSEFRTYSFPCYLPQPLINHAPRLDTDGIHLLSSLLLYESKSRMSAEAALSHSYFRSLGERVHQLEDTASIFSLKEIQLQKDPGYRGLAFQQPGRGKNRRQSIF
Chain of CDK18/cyclin Y (PCTK3) (Q8ND76 whole entry partner): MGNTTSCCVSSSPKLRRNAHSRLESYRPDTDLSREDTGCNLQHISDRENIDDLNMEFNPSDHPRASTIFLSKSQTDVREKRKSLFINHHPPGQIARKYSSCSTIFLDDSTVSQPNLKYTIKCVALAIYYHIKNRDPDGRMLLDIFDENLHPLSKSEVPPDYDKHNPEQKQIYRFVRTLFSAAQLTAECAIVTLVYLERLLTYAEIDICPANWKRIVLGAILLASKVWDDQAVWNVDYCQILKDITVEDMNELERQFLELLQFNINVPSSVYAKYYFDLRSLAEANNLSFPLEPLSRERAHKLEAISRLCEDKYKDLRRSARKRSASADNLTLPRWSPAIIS
Chain of TLK2 (Q86UE8 whole entry): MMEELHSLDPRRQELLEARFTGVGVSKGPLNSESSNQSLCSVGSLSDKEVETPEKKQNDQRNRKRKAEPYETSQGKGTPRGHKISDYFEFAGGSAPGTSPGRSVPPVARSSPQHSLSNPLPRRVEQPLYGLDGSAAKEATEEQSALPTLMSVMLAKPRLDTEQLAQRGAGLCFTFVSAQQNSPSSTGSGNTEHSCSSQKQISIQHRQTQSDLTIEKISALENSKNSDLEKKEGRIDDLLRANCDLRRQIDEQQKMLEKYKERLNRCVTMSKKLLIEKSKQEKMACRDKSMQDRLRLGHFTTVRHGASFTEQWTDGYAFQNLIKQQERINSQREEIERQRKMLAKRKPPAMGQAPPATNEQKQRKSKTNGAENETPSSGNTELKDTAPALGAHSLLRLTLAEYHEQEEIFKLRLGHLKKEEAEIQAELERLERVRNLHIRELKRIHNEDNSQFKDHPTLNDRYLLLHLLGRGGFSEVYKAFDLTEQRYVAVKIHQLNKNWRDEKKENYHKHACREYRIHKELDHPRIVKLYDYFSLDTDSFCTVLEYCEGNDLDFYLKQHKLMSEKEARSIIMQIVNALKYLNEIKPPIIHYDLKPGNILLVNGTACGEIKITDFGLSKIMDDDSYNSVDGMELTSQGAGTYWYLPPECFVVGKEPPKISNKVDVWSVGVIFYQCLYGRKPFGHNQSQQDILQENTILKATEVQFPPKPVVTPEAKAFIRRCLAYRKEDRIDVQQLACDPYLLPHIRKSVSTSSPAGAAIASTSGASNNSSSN
Chain of PYK2 (Q14289 whole entry): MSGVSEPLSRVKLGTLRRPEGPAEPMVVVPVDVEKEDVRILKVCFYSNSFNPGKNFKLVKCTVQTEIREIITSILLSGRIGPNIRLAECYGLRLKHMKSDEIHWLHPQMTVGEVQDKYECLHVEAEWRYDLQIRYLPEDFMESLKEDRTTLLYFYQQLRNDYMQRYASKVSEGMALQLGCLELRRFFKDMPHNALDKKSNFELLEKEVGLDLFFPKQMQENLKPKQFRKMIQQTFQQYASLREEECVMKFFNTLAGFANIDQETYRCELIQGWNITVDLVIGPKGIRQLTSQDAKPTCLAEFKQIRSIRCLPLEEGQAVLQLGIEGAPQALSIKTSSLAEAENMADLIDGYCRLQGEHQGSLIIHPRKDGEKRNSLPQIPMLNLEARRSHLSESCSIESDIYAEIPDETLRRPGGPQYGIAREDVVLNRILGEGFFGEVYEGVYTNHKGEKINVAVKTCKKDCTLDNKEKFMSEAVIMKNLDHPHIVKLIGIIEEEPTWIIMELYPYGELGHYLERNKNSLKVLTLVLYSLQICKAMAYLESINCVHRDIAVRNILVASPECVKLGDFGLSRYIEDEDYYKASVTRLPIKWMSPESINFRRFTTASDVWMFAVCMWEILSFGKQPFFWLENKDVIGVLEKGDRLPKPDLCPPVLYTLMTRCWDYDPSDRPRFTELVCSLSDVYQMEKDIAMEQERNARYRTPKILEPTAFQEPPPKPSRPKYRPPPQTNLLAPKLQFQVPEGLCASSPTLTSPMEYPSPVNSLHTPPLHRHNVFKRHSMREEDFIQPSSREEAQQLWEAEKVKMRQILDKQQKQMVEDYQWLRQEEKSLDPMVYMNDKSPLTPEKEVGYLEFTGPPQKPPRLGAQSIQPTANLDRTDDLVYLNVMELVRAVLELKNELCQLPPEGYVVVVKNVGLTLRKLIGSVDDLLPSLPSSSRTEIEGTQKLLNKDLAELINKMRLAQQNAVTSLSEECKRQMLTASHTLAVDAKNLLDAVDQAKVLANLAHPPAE
Chain of WNK3 (Q9BYP7 whole entry, species assumed): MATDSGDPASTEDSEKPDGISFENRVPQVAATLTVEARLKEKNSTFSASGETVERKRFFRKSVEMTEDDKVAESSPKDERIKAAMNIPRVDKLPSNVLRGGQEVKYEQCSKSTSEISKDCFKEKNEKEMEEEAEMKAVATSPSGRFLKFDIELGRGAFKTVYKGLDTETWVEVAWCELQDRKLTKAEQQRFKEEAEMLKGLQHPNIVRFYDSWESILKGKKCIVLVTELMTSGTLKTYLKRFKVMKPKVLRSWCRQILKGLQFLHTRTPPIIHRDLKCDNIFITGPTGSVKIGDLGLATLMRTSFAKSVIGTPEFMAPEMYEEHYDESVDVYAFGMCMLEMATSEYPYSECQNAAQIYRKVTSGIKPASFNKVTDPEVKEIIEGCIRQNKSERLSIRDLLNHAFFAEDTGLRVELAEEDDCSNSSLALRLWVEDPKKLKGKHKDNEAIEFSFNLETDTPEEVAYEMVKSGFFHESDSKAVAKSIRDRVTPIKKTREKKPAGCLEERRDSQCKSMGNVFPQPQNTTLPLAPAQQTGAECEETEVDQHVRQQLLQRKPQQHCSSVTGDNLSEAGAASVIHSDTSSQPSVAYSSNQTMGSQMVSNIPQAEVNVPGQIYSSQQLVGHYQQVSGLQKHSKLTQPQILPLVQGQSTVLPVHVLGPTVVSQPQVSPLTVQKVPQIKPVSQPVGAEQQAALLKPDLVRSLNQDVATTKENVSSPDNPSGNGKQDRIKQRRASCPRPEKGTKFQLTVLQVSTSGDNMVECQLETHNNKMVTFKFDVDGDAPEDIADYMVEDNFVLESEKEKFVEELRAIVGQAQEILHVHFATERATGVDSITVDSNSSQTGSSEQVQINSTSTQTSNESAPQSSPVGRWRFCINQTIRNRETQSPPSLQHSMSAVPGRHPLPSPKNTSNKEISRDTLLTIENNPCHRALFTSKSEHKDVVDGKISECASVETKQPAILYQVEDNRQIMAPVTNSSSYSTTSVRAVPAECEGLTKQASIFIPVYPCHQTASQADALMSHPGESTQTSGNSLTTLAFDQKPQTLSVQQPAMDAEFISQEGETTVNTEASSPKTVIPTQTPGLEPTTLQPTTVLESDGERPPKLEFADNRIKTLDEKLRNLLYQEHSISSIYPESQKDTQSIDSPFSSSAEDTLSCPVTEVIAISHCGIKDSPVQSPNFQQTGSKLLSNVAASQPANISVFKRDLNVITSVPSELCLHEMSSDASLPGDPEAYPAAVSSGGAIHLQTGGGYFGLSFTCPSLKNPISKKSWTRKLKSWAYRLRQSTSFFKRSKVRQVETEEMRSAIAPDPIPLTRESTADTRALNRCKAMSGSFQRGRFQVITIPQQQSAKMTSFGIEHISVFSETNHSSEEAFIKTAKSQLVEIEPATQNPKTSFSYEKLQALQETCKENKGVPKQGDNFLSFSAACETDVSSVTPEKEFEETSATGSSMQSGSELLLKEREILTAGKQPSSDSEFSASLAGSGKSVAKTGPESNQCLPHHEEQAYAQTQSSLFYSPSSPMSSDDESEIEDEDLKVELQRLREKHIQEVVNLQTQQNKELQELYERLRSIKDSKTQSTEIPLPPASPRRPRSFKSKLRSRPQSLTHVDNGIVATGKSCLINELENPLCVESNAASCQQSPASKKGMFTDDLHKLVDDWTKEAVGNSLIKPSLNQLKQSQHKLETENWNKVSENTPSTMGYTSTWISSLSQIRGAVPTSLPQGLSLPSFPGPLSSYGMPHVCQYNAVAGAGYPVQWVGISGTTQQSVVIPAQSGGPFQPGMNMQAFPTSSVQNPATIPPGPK
Chain of AURORA B (Q96GD4 whole entry): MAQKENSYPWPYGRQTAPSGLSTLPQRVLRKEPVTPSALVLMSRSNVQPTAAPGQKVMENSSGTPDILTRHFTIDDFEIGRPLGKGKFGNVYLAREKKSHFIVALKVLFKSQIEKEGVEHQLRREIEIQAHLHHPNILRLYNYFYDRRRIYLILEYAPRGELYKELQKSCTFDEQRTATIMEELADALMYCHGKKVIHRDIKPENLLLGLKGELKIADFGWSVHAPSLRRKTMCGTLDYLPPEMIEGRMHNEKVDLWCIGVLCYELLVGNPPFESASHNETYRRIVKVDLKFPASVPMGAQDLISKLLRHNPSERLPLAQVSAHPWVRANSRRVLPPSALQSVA

On to `COc1cc(-c2cncc(-c3ccc(N4CCN(C)CC4)cc3)c2C)cc(F)c1C(N)=O` [Compound 26a, 2-Fluoro-6-methoxy-4-(4-methyl-5-(4-(4-methylpiperazin-1-yl)phenyl)pyridin-3-yl)benzamide], for which the “% enzyme activity” value in experiment [1] is listed as 88.15%; in [2], 87.14%; in experiment [3], 85.65%; in experiment [4], 95.61%; in experiment [6] it was 100.58%; in experiment [8], 93.48%. Moreover, the “% enzyme activity” value in [10] is listed as 90.38%. For the same molecule, the remaining activity at 1 µM in [5] was determined as 98.3%; in [7], 102%; in experiment [9] it was 97.5%.

Consider `COc1cc(-c2cncc(-c3ccc(N4C[C@@H](C)N(C)[C@@H](C)C4)cc3)c2C)cc(F)c1C(N)=O` [Compound 26c, 2-Fluoro-6-methoxy-4-(4-methyl-5-(4-((3R,5S)-3,4,5-trimethylpiperazin-1-yl)phenyl)pyridin-3-yl)benzamide], for which the “% enzyme activity” value stood at 92.59% in experiment [1]; 124.21% in [2]; 85.73% in [3]; 89.84% in experiment [4]; 104.62% in experiment [6]; 95.22% in experiment [8]. The “% enzyme activity” value in experiment [10] stood at 93.15%. Besides, the values for the remaining activity at 1 µM in [5], in experiment [7] and in experiment [9] were 95.9%, 99% and 101%, respectively.
